Data taken from US20250346580A1, “NOVEL PYRIMIDINYL SULFONAMIDE DERIVATIVES” (Hoffmann-La Roche Inc., priority 2023, published 2025).

What was measured:
[1] = Microsome clearance assay, mouse; assay type: in vitro ADME; details: mouse microsomes 0.5 mg/mL plus NADPH, 37° C., test compound 1 microM; second value of cell
Protocol: (§1) Microsome Clearance Assay Protocol:
(§2) incubations at a test compound of […] in microsomes (0.5 mg/mL) plus cofactor NADPH are performed in 96 well plates at 37° C. on a TECAN (Tecan Group Ltd, Switzerland) automated liquid handling system. The final concentration of the test compound in the incubation is 1 microM. After a 10 minutes preincubation step of the test compound with the microsomes, the enzymatic reaction is started by the addition of cofactors. At 1, 3, 6, 9, 15, 25, 35 and 45 minutes, aliquots of the incubations are removed and quenched with 1:3 (v/v) acetonitrile containing internal standards. Samples are then cooled and centrifuged before analysis of the supernatant by LC-MS/MS.
(§3) Reference compounds were tested against exemplified compounds for their Microsome Clearance.

[2] = molecular target: human GPR17 short isoform (Homo sapiens, UniProt Q13304); assay: GPR17 cAMP assay (hGPR17 cAMP); assay type: cell-based; details: CHO-K1 cells stably expressing human GPR17 short isoform; antagonist mode with EC80 of MDL29,951, forskolin 15 μM, TR-FRET cAMP
Protocol: GPR17 cAMP Assay Protocol:
CHO-K1 cells stably expressing vector containing untagged human GPR17 short isoform (Roche) were cultured at 37° C./5% CO2 in DMEM (Dulbecco's Modified Eagle Medium):F-12 (1:1) supplemented with 10% foetal bovine serum and 400 μg/ml Geneticin.
Changes in intracellular cyclic adenosine monophosphate (cAMP) levels were quantified using the Nano-TRF Detection Assay kit (Roche Diagnostics, Cat. No. 05214386001). This assay allows for direct cAMP quantification in a homogeneous solution. cAMP is detected based on time-resolved fluorescence energy transfer (TR-FRET) and competitive binding of ruthenylated cAMP and endogenous cAMP to an anti-cAMP monoclonal antibody labeled with AlexaFluor-700. The Ruthenium complex serves as the FRET donor and transfers energy to AlexaFluor-700. The FRET signal is inversely proportional to the cAMP concentration.
CHO-GPR17S cells were detached with Accutase and resuspended in assay buffer consisting of Hank's Balanced Salt Solution (HBSS), 10 mM HEPES (4-(2-hydroxyethyl) piperazine-1-ethanesulfonic acid solution) and 0.1% bovine serum albumin (pH 7.4). The cells were seeded in black 384-well plates (Corning) at a density of 10'000 cells/20 μl assay buffer until the addition of compounds.
Test antagonist compounds were serially diluted in dimethyl sulfoxide (DMSO) and spotted in 384-well plates. The compounds were then diluted in HBSS buffer supplemented with an EC80 concentration of MDL29,951 (3-(2-Carboxy-4,6-dichloroindol-3-yl)propionic acid) (GPR17 agonist) plus 3-Isobutyl-1-methylxanthine (IBMX) (0.5 mM final concentration) and added to the cells at room temperature. Forskolin (15 μM final concentration) was added 5 minutes after the test compounds and the cells were incubated at room temperature for 30 minutes. The assay was stopped by adding cAMP detection mix (containing detergents for cell lysis) for 90 minutes at room temperature.
Cellular cAMP was measured using a Paradigm reader (Molecular Devices). The raw data was used to calculate the FRET signal based on the assay's P-factor as per cAMP kit instructions. The data was normalized to the maximal activity of a reference antagonist and dose response curves were fitted to the percent activity of the test compounds using a sigmoidal dose response model (Genedata Screener).

[3] = Microsome clearance assay, human; assay type: in vitro ADME; details: human microsomes 0.5 mg/mL plus NADPH, 37° C., test compound 1 microM; first value of cell
Protocol: as §1, §2, §3

[4] = Microsome clearance assay, rat; assay type: in vitro ADME; details: rat microsomes 0.5 mg/mL plus NADPH, 37° C., test compound 1 microM; third value of cell
Protocol: as §1, §2, §3

Chain of human GPR17 short isoform (Q13304 29-367): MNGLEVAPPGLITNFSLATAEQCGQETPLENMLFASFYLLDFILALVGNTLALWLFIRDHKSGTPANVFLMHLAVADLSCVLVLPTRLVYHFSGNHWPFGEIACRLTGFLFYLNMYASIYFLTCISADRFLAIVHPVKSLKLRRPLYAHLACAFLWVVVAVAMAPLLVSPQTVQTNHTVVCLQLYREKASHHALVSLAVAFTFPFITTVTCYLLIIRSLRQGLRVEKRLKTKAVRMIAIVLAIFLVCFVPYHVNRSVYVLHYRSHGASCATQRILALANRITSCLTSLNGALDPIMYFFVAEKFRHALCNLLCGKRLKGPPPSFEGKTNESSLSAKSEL

| IC50 [2] [nM] | Compound | also measured |
| --- | --- | --- |
| 253 | COc1nc(NS(=O)(=O)c2c[nH]c(-c3cccnn3)c2)nc(OC)c1OCC(F)F [Example 45, N-[5-(2,2-difluoroethoxy)-4,6-dimethoxy-pyrimidin-2-yl]-5-pyridazin-3-yl-1H-pyrrole-3-sulfonamide] |  |
| 77 | COc1nc(NS(=O)(=O)c2c[nH]c(-c3ncccc3Cl)c2)nc(OC)c1OCC(F)F [Example 46, 5-(3-chloro-2-pyridyl)-N-[5-(2,2-difluoroethoxy)-4,6-dimethoxy-pyrimidin-2-yl]-1H-pyrrole-3-sulfonamide] |  |
| 1610 | COc1nc(NS(=O)(=O)c2c[nH]c(-c3ccncn3)c2)nc(OC)c1OCC(F)F [Example 47, N-[5-(2,2-difluoroethoxy)-4,6-dimethoxy-pyrimidin-2-yl]-5-pyrimidin-4-yl-1H-pyrrole-3-sulfonamide] |  |
| 1320 | COc1nc(NS(=O)(=O)c2c[nH]c(-c3cnccn3)c2)nc(OC)c1OCC(F)F [Example 48, N-[5-(2,2-difluoroethoxy)-4,6-dimethoxy-pyrimidin-2-yl]-5-pyrazin-2-yl-1H-pyrrole-3-sulfonamide] |  |
| 122 | COc1nc(NS(=O)(=O)c2c[nH]c(-c3ncccc3C)c2)nc(OC)c1OCC(F)F [Example 49, N-[5-(2,2-difluoroethoxy)-4,6-dimethoxy-pyrimidin-2-yl]-5-(3-methyl-2-pyridyl)-1H-pyrrole-3-sulfonamide] |  |
| 748 | COc1nc(NS(=O)(=O)c2c[nH]c(C3CCC3)c2)nc(OC)c1OC(F)F [Example 50, 5-cyclobutyl-N-[5-(difluoromethoxy)-4,6-dimethoxy-pyrimidin-2-yl]-1H-pyrrole-3-sulfonamide] |  |
| 304 | COc1nc(NS(=O)(=O)c2c[nH]c(C3CCC3)c2)nc(OC)c1OCC(F)F [Example 51, 5-cyclobutyl-N-[5-(2,2-difluoroethoxy)-4,6-dimethoxy-pyrimidin-2-yl]-1H-pyrrole-3-sulfonamide] |  |

Continued, compound first:

| Compound | IC50 [2] [nM] | also measured |
| --- | --- | --- |
| COc1nc(NS(=O)(=O)c2c[nH]c(-c3ccccc3)c2)nc(OC)c1OCC(F)F [Example 1, N-[5-(2,2-difluoroethoxy)-4,6-dimethoxy-pyrimidin-2-yl]-5-phenyl-1H-pyrrole-3-sulfonamide] | 476 | Microsomal Clearance mouse [1]: 21 μL/min/mg protein; Microsomal Clearance human [3]: 10 μL/min/mg protein; Microsomal Clearance rat [4]: 81 μL/min/mg protein |
| COc1nc(NS(=O)(=O)c2c[nH]c(-c3ncccc3F)c2)nc(OC)c1OCCF [Example 7, N-[5-(2-fluoroethoxy)-4,6-dimethoxy-pyrimidin-2-yl]-5-(3-fluoro-2-pyridyl)-1H-pyrrole-3-sulfonamide] | 85 | Microsomal Clearance mouse [1]: 12 μL/min/mg protein; Microsomal Clearance human [3]: 10 μL/min/mg protein; Microsomal Clearance rat [4]: 32 μL/min/mg protein |
| COc1nc(NS(=O)(=O)c2c[nH]c(-c3nccs3)c2)nc(OC)c1OC(F)F [Example 14, N-[5-(difluoromethoxy)-4,6-dimethoxy-pyrimidin-2-yl]-5-thiazol-2-yl-1H-pyrrole-3-sulfonamide] | 256 | Microsomal Clearance mouse [1]: 10 μL/min/mg protein; Microsomal Clearance human [3]: 10 μL/min/mg protein; Microsomal Clearance rat [4]: 50 μL/min/mg protein |
| COc1nc(NS(=O)(=O)c2c[nH]c(-c3nc(C)cs3)c2)nc(OC)c1OC(F)F [Example 32, N-[5-(difluoromethoxy)-4,6-dimethoxy-pyrimidin-2-yl]-5-(4-methylthiazol-2-yl)-1H-pyrrole-3-sulfonamide] | 523 |  |
| COc1nc(NS(=O)(=O)c2c[nH]c(-c3nc(C)cs3)c2)nc(OC)c1OCC(F)F [Example 33, N-[5-(2,2-difluoroethoxy)-4,6-dimethoxy-pyrimidin-2-yl]-5-(4-methylthiazol-2-yl)-1H-pyrrole-3-sulfonamide] | 283 |  |
| COc1nc(NS(=O)(=O)c2c[nH]c(-c3nccs3)c2)ncc1CC(F)F [Example 34, N-[5-(2,2-difluoroethyl)-4-methoxy-pyrimidin-2-yl]-5-thiazol-2-yl-1H-pyrrole-3-sulfonamide] | 457 |  |
| COc1nc(NS(=O)(=O)c2c[nH]c(-c3nccs3)c2)nc(OC)c1C1CC1C#N (centres unmarked) [Example 35, N-[5-(2-cyanocyclopropyl)-4,6-dimethoxy-pyrimidin-2-yl]-5-thiazol-2-yl-1H-pyrrole-3-sulfonamide] | 170 |  |
| COc1nc(NS(=O)(=O)c2c[nH]c(-c3cncs3)c2)nc(OC)c1OCC(F)F [Example 36, N-[5-(2,2-difluoroethoxy)-4,6-dimethoxy-pyrimidin-2-yl]-5-thiazol-5-yl-1H-pyrrole-3-sulfonamide] | 111 |  |
| COc1nc(NS(=O)(=O)c2c[nH]c(-c3ccccc3F)c2)nc(OC)c1CC(F)F [Example 37, N-[5-(2,2-difluoroethyl)-4,6-dimethoxy-pyrimidin-2-yl]-5-(2-fluorophenyl)-1H-pyrrole-3-sulfonamide] | 130 |  |
| COc1nc(NS(=O)(=O)c2c[nH]c(-c3ccccc3F)c2)nc(OC)c1OCCF [Example 38, N-[5-(2-fluoroethoxy)-4,6-dimethoxy-pyrimidin-2-yl]-5-(2-fluorophenyl)-1H-pyrrole-3-sulfonamide] | 124 |  |
| COc1nc(NS(=O)(=O)c2c[nH]c(-c3ccccc3F)c2)nc(OC)c1OC(F)F [Example 39, N-[5-(difluoromethoxy)-4,6-dimethoxy-pyrimidin-2-yl]-5-(2-fluorophenyl)-1H-pyrrole-3-sulfonamide] | 354 |  |
| COc1nc(NS(=O)(=O)c2c[nH]c(-c3ccccc3F)c2)nc(OC)c1OCC(F)F [Example 40, N-[5-(2,2-difluoroethoxy)-4,6-dimethoxy-pyrimidin-2-yl]-5-(2-fluorophenyl)-1H-pyrrole-3-sulfonamide] | 540 |  |
| COc1nc(NS(=O)(=O)c2c[nH]c(-c3cccn(C)c3=O)c2)nc(OC)c1OCC(F)F [Example 41, N-[5-(2,2-difluoroethoxy)-4,6-dimethoxy-pyrimidin-2-yl]-5-(2-keto-1-methyl-3-pyridyl)-1H-pyrrole-3-sulfonamide] | 1420 |  |
| COc1nc(NS(=O)(=O)c2c[nH]c(-c3cnc(C)s3)c2)nc(OC)c1OCC(F)F [Example 42, N-[5-(2,2-difluoroethoxy)-4,6-dimethoxy-pyrimidin-2-yl]-5-(2-methylthiazol-5-yl)-1H-pyrrole-3-sulfonamide] | 1990 |  |
| COc1nc(NS(=O)(=O)c2c[nH]c(-c3ncccn3)c2)nc(OC)c1OCC(F)F [Example 43, N-[5-(2,2-difluoroethoxy)-4,6-dimethoxy-pyrimidin-2-yl]-5-pyrimidin-2-yl-1H-pyrrole-3-sulfonamide] | 1250 |  |
| COc1nc(NS(=O)(=O)c2c[nH]c(-c3ncc(C)s3)c2)nc(OC)c1OCC(F)F [Example 44, N-[5-(2,2-difluoroethoxy)-4,6-dimethoxy-pyrimidin-2-yl]-5-(5-methylthiazol-2-yl)-1H-pyrrole-3-sulfonamide] | 2670 |  |
| COc1nc(OCC(F)F)c(F)nc1NS(=O)(=O)c1c[nH]c(-c2ccccc2)c1 [RE-A] |  | microsomal CLint at 1 µM [1]: 136 µL/min/mg; microsomal CLint at 1 µM [3]: 21 µL/min/mg; microsomal CLint at 1 µM [4]: 489 µL/min/mg |
| N#Cc1ccc(NS(=O)(=O)c2c[nH]c(-c3ncccc3F)c2)c(F)c1 [RE-B] |  | microsomal CLint at 1 µM [1]: 43 µL/min/mg; microsomal CLint at 1 µM [3]: 253 µL/min/mg; microsomal CLint at 1 µM [4]: 79 µL/min/mg |
| O=S(=O)(Nc1cc(F)c(Br)cc1F)c1c[nH]c(-c2ncccc2F)c1 [RE-C] |  | microsomal CLint at 1 µM [1]: 238 µL/min/mg; microsomal CLint at 1 µM [3]: 107 µL/min/mg; microsomal CLint at 1 µM [4]: 582 µL/min/mg |
| O=S(=O)(Nc1cc(F)c(OC(F)F)cc1F)c1c[nH]c(-c2nccs2)c1 [RE-D] |  | microsomal CLint at 1 µM [1]: 35 µL/min/mg; microsomal CLint at 1 µM [3]: 10 µL/min/mg; microsomal CLint at 1 µM [4]: 207 µL/min/mg |
